In one series the test system is TAMCs. Put plainly: Annexin V viability assay of TAMCs. Type of series: cell-based, C57BL/6 mice. To be noted: 24 h. The protocol: In vitro viability, gene expression, and PD-L1 expression of TAMCs post treatments. In vitro generated TAMCs (8×10^5 cells/well) were seeded in 24-well plate. After 24 h of culture, cells were incubated with αPD-L1-LNP/Dina, αPD-L1-LNP, or free Dina. At predetermined time intervals, the cells were collected and washed, followed by the annexin V assay (BioLegend). RNA isolation was processed using the RNEasy Plus Mini Kit (Qiagen), and total RNA was quantified by Nanodrop (Thermo Scientific). cDNA was synthesized using the iScript cDNA synthesis kit (Bio-Rad), and analyzed by qPCR analysis (Bio-Rad). Selected groups of cells were exposed to irradiation and collected 72 h post treatments for cell circle analysis using BrdU Flow Kit (Fisher) following the manufacturer's protocol.

The subject of a further series is PD-L1. Put plainly: PD-L1 expression on TAMCs after IFNγ stimulation (RT-qPCR, flow cytometry). The class given is cell-based, C57BL/6 mice. To be noted: as low as. The procedure:
To detect the PD-L1 expression on TAMCs post treatments, in vitro generated TAMCs (8×10^5 cells/well) were seeded in 24-well plate. After 24 h of culture, cells were subject to different treatments (Dina, αPD-L1/LNP, or αPD-L1-LNP/Dina) at a Dina concentration of 25 nM. Selected groups of cells were exposed to IFNγ (PeproTech) stimulation at 10 ng/ml for 24 h. Cells were collected and washed, followed by qPCR analysis or antibody staining for flow cytometry. The effect of irradiation on PD-L1 expression on TAMCs was similarly assessed 72 h post irradiation.
Background: Quantitative PCR measures a nucleic acid by following its amplification.

Series [1] has as its system glioma-associated immune cells (TAMC, microglia, TIL). The series can be described thus: Ex vivo TAMC elimination assay. The class given is cell-based, mice. The note with it: 0, 25, 50 nM Dina, 72 h.
Protocol: TAMC targeting and elimination in ex vivo mice and human glioma models. Cell suspension collected from mouse or human samples was plated into 96 well U bottom plate. Cells were pre-blocked with Ultra-LEAF purified anti-mouse CD16/32 antibody or Human TruStain FcX (BioLegend) for 10 min at 4° C., followed by incubation with fluorescence labeled LNPs (0.15 mg lipids/ml) for 1 h at 37° C. in 5% CO2 humidified atmosphere. After gently washed with ice-cold PBS thrice, the cells were collected for staining with viability dye and antibodies. The cellular uptake was analyzed by flow cytometry. The ex vivo TAMC elimination assay was performed using cell suspension collected from mouse glioma samples. Cells were plated into 96 well U bottom plate in 50% complete RPMI and 50% conditioned media collected from GL261 glioma cell culture as aforementioned. Cells were subject to the treatment of αPD-L1/LNP/Dina or free Dina at a Dina concentration of 0, 25, and 50 nM for 72 h, and analyzed by flow cytometry.

Structures are written as SMILES.

In the case of `CCc1cnn2c(NCc3ccc[n+]([O-])c3)cc(N3CCCC[C@H]3CCO)nc12` [Dina, Dinaciclib], the “cytotoxicity / viability of TAMCs” value in the series on TAMCs is recorded as “comparable cytotoxicity”. The “dose attenuating PD-L1 expression on TAMCs” value in the series with PD-L1 is 25 nM. Besides, the “off-target toxicity to tumor-infiltrating lymphocytes / immune cell populations” value in series [1] was “severe off-target cytotoxicity”.

These data come from patent US12714747B2, “Cytotoxic lipid particles targeted to tumor-associated myeloid cells (TAMCS) and synergized with radiation therapy for treating glioblastoma” (priority 2019, dated 2026).
